The values that follow come from US6420558B1, “Aminopiperidine derivates as integrin αvβ3 antagonists” (Meiji Seika Kaisha, Ltd., priority 1998, dated 2002).

The target of the experiment is T1, integrin α5β1 (fibronectin receptor purified from the human placenta) (Homo sapiens, UniProt P05556+P08648).
T1 construct: a fibronectin receptor (protein content: 52.1 μg/ml) purified from the human placenta; from tissue; host or cells: human placenta
In words: α5β1 binding assay (fibronectin-fibronectin receptor binding assay). The following applies: fibronectin binding to human placenta fibronectin receptor; read-out: α5β1 Binding inhibitory activity. Here is the method: Integrin α5β1 antagonistic activity (lethality) was measured for the compounds according to the present invention in a fibronectin-fibronectin receptor binding assay system in accordance with the method of Kouns et al. (W. C. Kouns, D. Kirchhofer, P. Hadvary, A. Edenhofer, T. Weller, G. Pfenninger, H. R. Baumgartner, L. K. Jennings, and B. Steiner, Blood, 80, 2539-2547 (1992)).
Specifically, a fibronectin receptor (protein content: 52.1 μg/ml) purified from the human placenta by the method of Pytela et al. (R. Pytela, M. D. Pierschbacher, S. Argraves, S. Suzuki, and E. Ruoslahti, Method in Enzymology, 144, 475-489 (1987)) was diluted 25 times with TBS (20 mM Tris-HCl, 150 mM NaCl, 1 mM CaCl2, 1 mM MgCl2, pH 7.4), and distributed and coated on wells (50 μl/well) of a plate (Maxisorp, Nunc, 96 well Immuno Plate). The plate was then allowed to stand at 4° C. for one day, washed twice with TBS (200 μl/well), and then subjected to blocking with TBS (150 μl/well) containing 3% skim milk (DIFCO) at 4° C. overnight. After washing twice with TBS (200 μl/well) containing 0.05% Tween-20 and then washing twice with TBS (200 μl/well), purification was carried out according to the method of E. Engvall et al. (E. Engvall, E. Ruoslahti, and E. J. Miller, J. Exp. Med., 147, 1584-1595 (1978)), and 50 […] of fibronectin adjusted to 0.2 μg/ml by the addition of TBS (TBS-Tween) containing 0.01% Tween-20 was mixed with 50 μl of each test compound adjusted to each concentration in the wells, and a reaction was allowed to proceed at room temperature for 3 hr. After the completion of the reaction, the wells were washed five times with TBS-Tween. A solution prepared by diluting a peroxidase-labeled fibronectin antibody (CAPPEL) 500 times with TBS-Tween was added in an amount of 50 μl per well, and a reaction was allowed to proceed at room temperature for 1.5 hr. After washing five times with TBS-Tween (200 μl/well), ABTS (SIGMA) adjusted to 1 mg/ml by the addition of a ten-fold diluted POD-buffer (ZYMED) was added in an amount of 50 μl/well, and a reaction was allowed to proceed for 5 to 10 min. A 0.1 M citric acid buffer (pH 4.3) containing 0.05% NaN3 was added in an amount of 50 μl/well to stop the reaction, followed by the measurement of the absorbance at 415 nm with a microplate reader (MTP 32, Corona Electric) (reference: 675 nm). The total binding was defined as the absorbance after a reaction using 50 μl of TBS-Tween instead of the test compound, and the non-specific binding (100% inhibition) was defined as the absorbance after a reaction using 50 μl of TBS-Tween containing 2×10^−3 M RGDS. The inhibition was calculated by the following equation: [formula]
IC50 was determined from a primary regression line of the logarithm of each concentration of the test compound and the logarithm of (100−inhibition)/inhibition.

T1 sequence (P08648 42-894 limits assumed): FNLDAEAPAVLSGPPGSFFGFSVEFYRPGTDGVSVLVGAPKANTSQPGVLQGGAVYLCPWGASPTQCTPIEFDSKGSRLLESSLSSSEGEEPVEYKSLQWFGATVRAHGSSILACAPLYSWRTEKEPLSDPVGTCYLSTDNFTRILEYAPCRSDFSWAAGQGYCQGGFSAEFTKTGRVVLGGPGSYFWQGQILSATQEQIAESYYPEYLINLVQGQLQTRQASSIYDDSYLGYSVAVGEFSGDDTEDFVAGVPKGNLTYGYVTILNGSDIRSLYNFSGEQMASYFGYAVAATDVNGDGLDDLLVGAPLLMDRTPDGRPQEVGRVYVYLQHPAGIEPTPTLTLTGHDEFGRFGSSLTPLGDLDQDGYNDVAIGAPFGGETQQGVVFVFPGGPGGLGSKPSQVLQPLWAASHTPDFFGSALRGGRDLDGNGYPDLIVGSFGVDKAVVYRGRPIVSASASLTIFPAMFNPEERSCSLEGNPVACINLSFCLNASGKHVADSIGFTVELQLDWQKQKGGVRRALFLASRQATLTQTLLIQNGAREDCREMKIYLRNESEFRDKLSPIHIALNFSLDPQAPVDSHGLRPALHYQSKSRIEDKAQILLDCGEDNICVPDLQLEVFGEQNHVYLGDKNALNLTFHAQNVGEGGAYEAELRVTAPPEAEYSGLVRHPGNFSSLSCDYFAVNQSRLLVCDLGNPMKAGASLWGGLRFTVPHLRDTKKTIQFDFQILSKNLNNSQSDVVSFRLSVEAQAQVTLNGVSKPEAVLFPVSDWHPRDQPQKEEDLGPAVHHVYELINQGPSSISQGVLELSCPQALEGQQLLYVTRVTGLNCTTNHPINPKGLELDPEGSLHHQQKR
T1 sequence (P08648 895-1049 limits assumed): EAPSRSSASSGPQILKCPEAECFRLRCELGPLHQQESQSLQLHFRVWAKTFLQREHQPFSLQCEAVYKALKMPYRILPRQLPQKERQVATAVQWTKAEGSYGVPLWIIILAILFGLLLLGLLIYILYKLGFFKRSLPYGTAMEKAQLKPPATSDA
T1 sequence (P05556 21-798): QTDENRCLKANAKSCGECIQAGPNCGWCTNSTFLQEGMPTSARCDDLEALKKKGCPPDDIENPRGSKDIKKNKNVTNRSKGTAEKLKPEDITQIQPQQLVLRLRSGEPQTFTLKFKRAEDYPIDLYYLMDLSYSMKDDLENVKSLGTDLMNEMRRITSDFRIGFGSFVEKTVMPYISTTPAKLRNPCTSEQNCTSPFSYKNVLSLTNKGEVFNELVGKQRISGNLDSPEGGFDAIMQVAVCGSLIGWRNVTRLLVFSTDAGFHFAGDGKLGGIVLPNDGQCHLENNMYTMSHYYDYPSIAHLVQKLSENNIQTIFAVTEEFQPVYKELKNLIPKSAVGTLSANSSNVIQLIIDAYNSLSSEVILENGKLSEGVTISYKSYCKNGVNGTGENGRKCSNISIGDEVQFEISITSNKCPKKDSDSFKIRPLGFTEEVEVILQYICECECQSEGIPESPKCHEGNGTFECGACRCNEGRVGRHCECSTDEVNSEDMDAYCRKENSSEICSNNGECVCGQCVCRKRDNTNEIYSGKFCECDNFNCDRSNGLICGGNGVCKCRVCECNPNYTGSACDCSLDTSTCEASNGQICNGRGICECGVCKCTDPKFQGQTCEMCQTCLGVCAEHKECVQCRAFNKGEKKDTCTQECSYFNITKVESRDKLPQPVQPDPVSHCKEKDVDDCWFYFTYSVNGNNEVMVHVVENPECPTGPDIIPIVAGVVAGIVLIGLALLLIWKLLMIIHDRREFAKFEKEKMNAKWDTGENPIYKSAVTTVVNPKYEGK

Turning to `O=C(NC[C@H](NS(=O)(=O)c1ccccc1)C(=O)O)c1ccc(N2CCC(NC3=NCCCN3)CC2)c(F)c1` [Example 52, (2S)-Benzenesulfonylamino-3-[3-fluoro-4-{4-(1,4,5,6-tetrahydropyrimidin-2-ylamino)piperidin-1-yl}-benzoylamino]propionic acid], the IC50 was 330 nM.
